Measured values published in the supplement of paper PMC11061612.

Experiments:
[1] = compound: CC1=CN2[C@@H](C1)C=NC3=CC(=C(C=C3C2=O)OC)OCCCCCOC4=C(C=C5C(=C4)N=C[C@@H]6CC(=CN6C5=O)C)OC [SG3199]; settings: max 0.001 µM
In short: (§1)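 Cancer cell lines were seeded into 1536-well plates in 7.5 μl medium (DMEM/F12 or RPMI, 10% FBS), held 24 hours at 37°C and 5% CO2, and dosed for 72 hours with final DMSO typically 0.2%. Luminescence from CellTiter-Glo 2.0, scaled between blank-well and DMSO-well means, served as viability. The single-agent IC50 was obtained from dose-response fits with a non-linear mixed effects model, each fit being a two-parameter logistic curve.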

[2] = compound: CS(=O)(=O)CCNCc1ccc(-c2ccc3ncnc(Nc4ccc(OCc5cccc(F)c5)c(Cl)c4)c3c2)o1 [Lapatinib]; settings: max 10 µM
In short: as §1

[3] = compound: CC(=O)Nc1cccc(-n2c(=O)n(C3CC3)c(=O)c3c(Nc4ccc(I)cc4F)n(C)c(=O)c(C)c32)c1 [Trametinib]; settings: max 1 µM
In short: as §1

[4] = compound: CC1=C(C(=CC=C1)Cl)NC(=O)C2=CN=C(S2)NC3=CC(=NC(=N3)C)N4CCN(CC4)CCO [Dasatinib]; settings: max 2 µM
In short: as §1

[5] = compound: C[C@@H](Nc1cc(F)cc(F)c1)c1cc(C(=O)N(C)C)cc2c(=O)cc(N3CCOCC3)oc12 [AZD8186]; settings: max 3 µM
In short: as §1

[6] = compound: COc1cc2ncnc(Nc3ccc(F)c(Cl)c3)c2cc1OCCCN1CCOCC1 [Gefitinib]; settings: max 10 µM
In short: as §1

[7] = compound: CC1(C)CCC(CN2CCN(c3ccc(C(=O)NS(=O)(=O)c4ccc(NCC5CCOCC5)c([N+](=O)[O-])c4)c(Oc4cnc5[nH]ccc5c4)c3)CC2)=C(c2ccc(Cl)cc2)C1 [Venetoclax]; settings: max 1 µM
In short: as §1

[8] = compound: COc1cccc(OCCCN)c1-c1cc(Nc2cnc(C#N)cn2)n[nH]1 [Prexasertib]; settings: max 1 µM
In short: as §1

[9] = compound: C=CCn1c(=O)c2cnc(Nc3ccc(N4CCN(C)CC4)cc3)nc2n1-c1cccc(C(C)(C)O)n1 [AZD1775]
In short: as §1

[10] = compound: C[C@@H]1COCCN1C2=NC(=NC(=C2)C3(CC3)[S@](=N)(=O)C)C4=C5C=CNC5=NC=C4 [AZD6738]; settings: max 10 µM
In short: as §1

[11] = compound: C[C@@H](Oc1cc(-c2cnn(C3CCNCC3)c2)cnc1N)c1c(Cl)ccc(F)c1Cl [Crizotinib]; settings: max 10 µM
In short: as §1

[12] = compound: Cc1nc(-c2cn3c(n2)-c2ccc(-c4cnn(C(C)(C)C(N)=O)c4)cc2OCC3)n(C(C)C)n1 [Taselisib]; settings: max 10 µM
In short: as §1

[13] = compound: CCc1c2c(nc3ccc(O)cc13)-c1cc3c(c(=O)n1C2)COC(=O)[C@]3(O)CC [SN-38]; settings: max 0.3 µM
In short: as §1

[14] = compound: CC(C)n1c(=O)n(C)c2cnc3cc(F)c(-c4ccc(OCCCN5CCCCC5)nc4)cc3c21 [AZD1390]; settings: max 0.3 µM
In short: as §1

[15] = compound: Cc1c2c(nn1C)CSCc1cc(n(C)n1)CSc1cc(c3ccccc3c1)OCCCc1c(C(=O)O)n(C)c3c-2c(Cl)ccc13 [AZD5991]; settings: max 1 µM
In short: as §1

[16] = compound: COc1cc(Nc2ncc3c(n2)-c2ccc(Cl)cc2C(c2c(F)cccc2OC)=NC3)ccc1C(=O)O [Alisertib]; settings: max 10 µM
In short: as §1

[17] = compound: Cc1cc2ncnn2cc1Nc1ncc2c(n1)n(C1CCOCC1)c(=O)n2C [AZD7648]; settings: max 10 µM
In short: as §1

[18] = compound: COc1cccc2c1C(=O)c1c(O)c3c(c(O)c1C2=O)C[C@@](O)(C(=O)CO)C[C@@H]3O[C@H]1C[C@H](N)[C@H](O)[C@H](C)O1 [Doxorubicin]; settings: max 1 µM
In short: as §1

[19] = compound: Cn1cnc2c(F)c(Nc3ccc(Br)cc3Cl)c(C(=O)NOCCO)cc21 [Selumetinib]; settings: max 10 µM
In short: as §1

[20] = compound: CCN(CCO)CCCOc1ccc2c(Nc3cc(CC(=O)Nc4cccc(F)c4)[nH]n3)ncnc2c1 [AZD2811]; settings: max 1 µM
In short: as §1

[21] = compound: C1CN(CCC1(C(=O)N[C@@H](CCO)C2=CC=C(C=C2)Cl)N)C3=NC=NC4=C3C=CN4 [Capivasertib]
In short: as §1

[22] = compound: O=C(c1cc(Cc2n[nH]c(=O)c3ccccc23)ccc1F)N1CCN(C(=O)C2CC2)CC1 [Olaparib]
In short: as §1

[23] = compound: COc1nnc2ccc(N3CCC(c4ccc(OCCN5CCN(C)C(=O)[C@H]5C)cc4)CC3)nn12 [AZD5153]; settings: max 1 µM
In short: as §1

[24] = compound: CN(CC[C@H](CSC1=CC=CC=C1)NC2=C(C=C(C=C2)S(=O)(=O)NC(=O)C3=CC=C(C=C3)N4CCC(CC4)[C@H](C5=CC=CC=C5C6=CC=C(C=C6)Cl)O)S(=O)(=O)C(F)(F)F)CCO [AZD4320]; settings: max 1 µM
In short: as §1

[25] = compound: CN(C)CCCOc1ccc(-c2ccc3ncc4c(c3c2)n(C2CCOCC2)c(=O)n4C)cn1 [AZD0156]
In short: as §1

[26] = compound: C[C@@H](c1ccc2nccn2c1)n1nnc2ncc(-c3cnn(C)c3)nc21 [Savolitinib]; settings: max 1 µM
In short: as §1

[27] = compound: CC(=O)c1c(C)c2cnc(Nc3ccc(N4CCNCC4)cn3)nc2n(C2CCCC2)c1=O [Palbociclib]; settings: max 10 µM
In short: as §1

Cell Line	IC50, cell viability 72 h [1]	IC50, cell viability 72 h [2]	IC50, cell viability 72 h [3]	IC50, cell viability 72 h [4]	IC50, cell viability 72 h [5]	IC50, cell viability 72 h [6]	IC50, cell viability 72 h [7]	IC50, cell viability 72 h [8]	IC50, cell viability 72 h ([9]; max 3 µM)	IC50, cell viability 72 h [10]	IC50, cell viability 72 h [11]	IC50, cell viability 72 h [12]	IC50, cell viability 72 h [13]	IC50, cell viability 72 h [14]	IC50, cell viability 72 h [15]	IC50, cell viability 72 h [16]	IC50, cell viability 72 h [17]	IC50, cell viability 72 h [18]	IC50, cell viability 72 h [19]	IC50, cell viability 72 h [20]	IC50, cell viability 72 h ([21]; max 10 µM)	IC50, cell viability 72 h ([22]; max 10 µM)	IC50, cell viability 72 h [23]	IC50, cell viability 72 h [24]	IC50, cell viability 72 h ([25]; max 3 µM)	IC50, cell viability 72 h [26]	IC50, cell viability 72 h [27]	IC50, cell viability 72 h ([21]; max 3 µM)	IC50, cell viability 72 h ([22]; max 3 µM)	IC50, cell viability 72 h ([9]; max 1 µM)	IC50, cell viability 72 h ([25]; max 1 µM)
ALL-PO (B-Lymphoblastic Leukemia)	> 1 nM	5960 nM	> 1000 nM	> 2000 nM	> 3000 nM	> 10000 nM	733 nM	17.7 nM	510 nM	2120 nM	1810 nM	5290 nM	2.05 nM	> 300 nM	57.4 nM	55.9 nM	> 10000 nM	166 nM	> 10000 nM	6.76 nM	7800 nM	7820 nM	67.2 nM	21.4 nM	> 3000 nM	> 1000 nM	4650 nM	–	–	–	–
BE2-M17 (Neuroblastoma)	> 1 nM	> 10000 nM	127 nM	> 2000 nM	> 3000 nM	> 10000 nM	> 1000 nM	24.9 nM	900 nM	4840 nM	8330 nM	2620 nM	14.5 nM	> 300 nM	324 nM	1910 nM	> 10000 nM	425 nM	9300 nM	> 1000 nM	> 10000 nM	> 10000 nM	> 1000 nM	> 1000 nM	> 3000 nM	> 1000 nM	> 10000 nM	–	–	–	–
BPH-1 (Non-Cancerous)	> 1 nM	836 nM	80.2 nM	127 nM	> 3000 nM	5900 nM	> 1000 nM	> 1000 nM	882 nM	> 10000 nM	> 10000 nM	379 nM	6.84 nM	> 300 nM	> 1000 nM	1350 nM	> 10000 nM	312 nM	4720 nM	> 1000 nM	> 10000 nM	> 10000 nM	69.4 nM	> 1000 nM	> 3000 nM	> 1000 nM	> 10000 nM	–	–	–	–
CAL-33 (Oral Cavity Carcinoma)	> 1 nM	3530 nM	724 nM	550 nM	> 3000 nM	> 10000 nM	> 1000 nM	138 nM	659 nM	4390 nM	> 10000 nM	122 nM	5.71 nM	> 300 nM	> 1000 nM	553 nM	> 10000 nM	219 nM	> 10000 nM	255 nM	> 10000 nM	> 10000 nM	> 1000 nM	> 1000 nM	> 3000 nM	> 1000 nM	> 10000 nM	–	–	–	–
CHP-134 (Neuroblastoma)	–	–	–	–	–	–	–	–	646 nM	–	–	–	–	–	–	–	–	–	–	–	–	–	–	–	> 3000 nM	–	–	> 3000 nM	> 3000 nM	–	–
Detroit562 (Head and Neck Carcinoma)	> 1 nM	2020 nM	> 1000 nM	115 nM	> 3000 nM	> 10000 nM	> 1000 nM	29.5 nM	430 nM	2150 nM	1680 nM	355 nM	22 nM	> 300 nM	> 1000 nM	760 nM	> 10000 nM	> 1000 nM	> 10000 nM	188 nM	6950 nM	> 10000 nM	65.2 nM	> 1000 nM	> 3000 nM	> 1000 nM	> 10000 nM	–	–	–	–
FTC-133 (Thyroid Gland Carcinoma)	> 1 nM	> 10000 nM	> 1000 nM	> 2000 nM	> 3000 nM	> 10000 nM	> 1000 nM	29.2 nM	–	4690 nM	> 10000 nM	> 10000 nM	6.51 nM	> 300 nM	999 nM	8360 nM	> 10000 nM	352 nM	> 10000 nM	> 1000 nM	8760 nM	> 10000 nM	657 nM	> 1000 nM	–	> 1000 nM	> 10000 nM	–	–	968 nM	> 1000 nM
HeLa (Cervical Carcinoma)	> 1 nM	> 10000 nM	> 1000 nM	> 2000 nM	> 3000 nM	> 10000 nM	> 1000 nM	105 nM	893 nM	> 10000 nM	> 10000 nM	> 10000 nM	> 300 nM	> 300 nM	> 1000 nM	> 10000 nM	> 10000 nM	> 1000 nM	> 10000 nM	> 1000 nM	> 10000 nM	> 10000 nM	> 1000 nM	> 1000 nM	> 3000 nM	> 1000 nM	> 10000 nM	–	–	–	–
Hs-746T (Gastric Carcinoma)	> 1 nM	> 10000 nM	254 nM	> 2000 nM	> 3000 nM	> 10000 nM	> 1000 nM	66.4 nM	1440 nM	9890 nM	683 nM	> 10000 nM	> 300 nM	> 300 nM	> 1000 nM	> 10000 nM	> 10000 nM	> 1000 nM	> 10000 nM	> 1000 nM	> 10000 nM	> 10000 nM	833 nM	> 1000 nM	> 3000 nM	40.9 nM	> 10000 nM	–	–	–	–
